We go through 24 molecules from patent US20240116923A1, “USE OF INDOLE, 6- AND 7-AZAINDOLE DERIVATIVES AS INHIBITORS OF FERROPTOSIS REGULATED CELL DEATH” (Seabelife, priority 2021, published 2024).

Structures are written as SMILES. Like-named read-outs stand apart in the source and are kept apart here. Some results are limits rather than exact numbers.

The subject of data set [1] is mouse hippocampal neuronal cell line HT22. Kind of data set: Neurotoxicity and excitotoxicity assay, HT22 cells + glutamate, erastin or RSL3, MTS cell viability. The class given is cell-based. The note with it: Mus musculus. The protocol:
(§1) The excitotoxicity model used was the mouse hippocampal neuronal HT22 cells treated with glutamate [Dixon et al., Cell, 2012, 149(5), 1060-1072]. Ferroptosis and oxidative stress are both associated in this glutamate-induced cell death [Chu et al., Neural Regen. Res., 2020, 15(3), 528-536]. Phenotypic screening was also carried out with additional cell death inducers, erastin and RSL3 ((1S,3R)-Ras-selective lethal), in HT22 and SH-SY5Y (human neuroblastoma cells). Erastin and RSL3 are well described molecules, used as chemical tools for the study of ferroptosis regulation and neuronal pathologies [Lewerenz et al., Front. Neurosci., 2018, 12: 214; Reichert et al., Int. J. Mol. Sci., 2020, 21, 8765].
(§2) Mouse hippocampal neuronal cell line (HT22, ATCC) and human neuroblastoma cell line (SH-SY5Y, ATCC) were grown in Dulbecco's Modified Eagle Medium (DMEM, Gibco) supplemented with 10% fetal bovine serum (FBS, Gibco) at 37° C. under 5% CO2 atmosphere. Neurotoxicity was induced by erastin or RSL3 and excitotoxicity was induced by glutamate. Cells were seeded in 96-well plates at 5,000 and 10,000 cells/well for HT22 and SH-SY5Y cell lines, respectively. Cells were treated with 0.5-1 μM Erastin (HT22 cells) or 10 μM Erastin (SH-SY5Y cells) or 5-10 mM glutamate (HT22 cells) or 0.5 μM RSL3 (HT22 cells) or 5 μM RSL3 (SH-SY5Y cells) for 24 h in presence of increasing concentrations of inhibitors. Cells treated with DMSO only were used as controls. Cell viability was assessed by MTS assay (CellTiter 96 AQueous One Solution Cell Proliferation assay, Promega).
(§3) In FIGS. 1, 2A and 2B, an inhibitor was added to HT22 (FIG. 1: compound 6) or SH-SY5Y (FIG. 2A: compound 6; FIG. 2B: compound 25) cells in the presence or not of cell death inducers (erastin, glutamate or RSL3). […] EC50 values for compounds 1-28 were calculated from dose-response curves using Graphpad Prism software.

The subject of data set [2] is human neuroblastoma cell line SH-SY5Y. The data set can be described thus: Neurotoxicity assay, SH-SY5Y cells + erastin or RSL3, MTS cell viability. The class given is cell-based. The note with it: for EC50: Homo sapiens. As to the method: as §1, §2, §3
The mark [3] stands for this setting: HT-22, HT22 cells, 0.5 μM RSL3, 24 h, MTS, read-out: EC50 HT22 RSL3.
Where [4] appears, read: HT-22, HT22 cells, 0.5-1 μM Erastin, 24 h, MTS, read-out: EC50 HT22 Erastin.
Where [5] appears, read: HT-22, HT22 cells, 5-10 mM glutamate, 24 h, MTS, read-out: EC50 HT22 Glutamate.
The mark [6] stands for this setting: SH-SY5Y cells, 10 μM Erastin, 24 h, MTS, read-out: EC50 SH-SY5Y Erastin.
Setting [7] is: HT-22, 24 h, read-out: EC50 HT22 Erastin.
Where [8] appears, read: HT-22, 24 h, read-out: EC50 HT22 RSL3.
Setting [9] is: SH-SY5Y, 24 h, read-out: EC50 SH-SY5Y RSL3.
Setting [10] is: SH-SY5Y cells, 5 μM RSL3, 24 h, MTS, read-out: EC50 SH-SY5Y RSL3.
Where [11] appears, read: HT-22, 24 h, read-out: EC50 HT22 Glutamate.
[12] abbreviates: SH-SY5Y, 24 h, read-out: EC50 SH-SY5Y Erastin.

In general, EC50 refers to the concentration needed to bring the measured effect to its halfway point. Take `CCOc1ccc(-c2cc3c(Nc4ccc(C(=O)c5ccccc5)cc4)ccnc3[nH]2)cc1` [Compound 11, (4-((2-(4-ethoxyphenyl)-1H-pyrrolo[2,3-b]pyridin-4-yl)amino)phenyl)(phenyl)methanone]: the EC50 came to 1.16 µM in data set [1] (setting [3]), 0.32 µM in data set [1] (setting [4]), 0.14 µM in data set [1] (setting [5]) and 0.15 µM in data set [2] (setting [6]).

With `CCOc1ccc(-c2cc3ccncc3n2OC(=O)N(CC)CC)cc1` [Compound 34, 2-(4-ethoxyphenyl)-1H-pyrrolo[2,3-c]pyridin-1-yl diethylcarbamate], the EC50 in data set [1] (setting [7]) was more than 50 µM; in data set [1] (setting [8]), 16.8 µM; in data set [2] (setting [9]), 6.62 µM.

Turning to `Oc1ccc(-c2cc3ccc(Cl)nc3[nH]2)cc1` [Compound 37, 4-(6-chloro-1H-pyrrolo[2,3-b]pyridin-2-yl)phenol], the EC50 in data set [1] (setting [3]) came out at 9.11 µM; in data set [1] (setting [4]) it was 11.8 µM; in data set [2] (setting [10]), 1.22 µM; in data set [2] (setting [6]), 7.13 µM.

On to `COc1ccc(-c2cc3ccccc3[nH]2)cc1` [Compound 2, 2-(4-methoxyphenyl)-1H-indole], for which the EC50 in data set [1] (setting [7]) is 7.92 µM; in data set [1] (setting [11]) it was 2.66 µM; in data set [1] (setting [8]), 46 µM; in data set [2] (setting [12]), 2.9 µM; in data set [2] (setting [9]), 7.43 µM.

As for `CCOc1ccc(-c2cc3c(N4CCCCC4)ccnc3[nH]2)cc1` [Compound 13, 2-(4-ethoxyphenyl)-4-(piperidin-1-yl)-1H-pyrrolo[2,3-b]pyridine], the EC50 was 44.1 µM in data set [1] (setting [3]); 3.62 µM in data set [1] (setting [4]); 0.92 µM in data set [1] (setting [5]); 9.25 µM in data set [2] (setting [10]); 1.11 µM in data set [2] (setting [6]).

As for `CCOc1ccc(-c2cc3c(-c4ccc(C(=O)c5ccccc5)cc4)ccn(Cc4ccccc4)c-3n2)cc1` [Compound 28, (4-(7-benzyl-2-(4-ethoxyphenyl)-7H-pyrrolo[2,3-b]pyridin-4-yl)phenyl)(phenyl)methanone], the EC50 in data set [1] (setting [3]) turned out to be 17.3 µM; in data set [1] (setting [4]), 23.9 µM; in data set [1] (setting [5]), 14.8 µM; in data set [2] (setting [10]) it was 15.8 µM; in data set [2] (setting [6]) it was 31.3 µM.

`CCOc1ccc(-c2cc3ccc(C#N)nc3[nH]2)cc1` [Compound 35, 2-(4-ethoxyphenyl)-1H-pyrrolo[2,3-b]pyridine-6-carbonitrile]: the EC50 was 5.4 µM in data set [1] (setting [3]), 17 µM in data set [1] (setting [4]), 1.03 µM in data set [2] (setting [10]) and 5.95 µM in data set [2] (setting [6]).

As for `CCOc1ccc(-c2[nH]c3ncccc3c2CN2CCN(C)CC2)cc1` [Compound 16, 2-(4-ethoxyphenyl)-3-((4-methylpiperazin-1-yl)methyl)-1H-pyrrolo[2,3-b]pyridine], the EC50 in data set [2] (setting [6]) was more than 50 µM.

Turning to `CCOc1ccc(-c2cc3ccc(-c4cn[nH]c4)nc3[nH]2)cc1` [Compound 41, 2-(4-ethoxyphenyl)-6-(1H-pyrazol-4-yl)-1H-pyrrolo[2,3-b]pyridine], the figures for the EC50 in data set [1] (setting [3]), in data set [2] (setting [10]) and in data set [2] (setting [6]) were 6.5 µM, 2.21 µM and 3.68 µM, respectively.

For `CC(CO)(CO)C(=O)Oc1ccc(-c2cc3cccnc3[nH]2)cc1` [Compound 10, 4-(1H-pyrrolo[2,3-b]pyridin-2-yl)phenyl 3-hydroxy-2-(hydroxymethyl)-2-methylpropanoate], the EC50 was more than 50 µM in data set [1] (setting [3]), more than 25 µM in data set [1] (setting [4]), more than 25 µM in data set [1] (setting [5]) and 13.7 µM in data set [2] (setting [6]).

As for `CCOc1ccc(-c2[nH]c3ncccc3c2C(O)C(F)(F)F)cc1` (centres unmarked) [Compound 18, 1-(2-(4-ethoxyphenyl)-1H-pyrrolo[2,3-b]pyridin-3-yl)-2,2,2-trifluoroethan-1-ol], in data set [2] (setting [6]), the EC50 was more than 50 µM.

For the molecule `COc1ccc(-c2ccc3cc(-c4ccc(O)cc4)[nH]c3n2)cn1` [Compound 39, 4-(6-(6-methoxypyridin-3-yl)-1H-pyrrolo[2,3-b]pyridin-2-yl)phenol], the EC50 worked out at 16.1 µM in data set [1] (setting [3]), 16.1 µM in data set [1] (setting [4]), 1.47 µM in data set [2] (setting [10]) and 5.83 µM in data set [2] (setting [6]).

In the case of `CCOc1ccc(-c2cc3ccc(N)nc3[nH]2)cc1` [Compound 36, 2-(4-ethoxyphenyl)-1H-pyrrolo[2,3-b]pyridin-6-amine], the EC50 was determined as 0.27 µM in data set [1] (setting [3]), 0.32 µM in data set [1] (setting [4]), 0.07 µM in data set [2] (setting [10]) and 0.23 µM in data set [2] (setting [6]).

On to `CCOc1ccc(-c2cc3c(N(C)c4ccccc4)ccnc3[nH]2)cc1` [Compound 44, 2-(4-ethoxyphenyl)-N-methyl-N-phenyl-1H-pyrrolo[2,3-b]pyridin-4-amine], for which the EC50 in data set [1] (setting [3]) came to 7.12 µM; in data set [1] (setting [4]), 0.43 µM; in data set [2] (setting [10]) it was 2.66 µM; in data set [2] (setting [6]), 4.43 µM.

Consider `CCOc1ccc(-c2cc3cccn(C(=O)OCc4ccccc4)c-3n2)cc1` [Compound 25, benzyl 2-(4-ethoxyphenyl)-7H-pyrrolo[2,3-b]pyridine-7-carboxylate], for which the EC50 in data set [1] (setting [3]) was 19 µM; in data set [1] (setting [4]) it was 3.39 µM; in data set [1] (setting [5]), 1.65 µM; in data set [2] (setting [10]) it was 5.25 µM; in data set [2] (setting [6]), 1.4 µM. Moreover, the “effect on cell viability without cell death inducers (potential cytotoxic effect of the molecule alone)” value in data set [2] (SH-SY5Y cells, 24 h, doses tested maximum 50 or 100 μM) is “no effect on cell viability”. In addition, in data set [2] (SH-SY5Y cells, in the presence of a ferroptosis inducer), the “concentration reaching almost total inhibition of induced cell death” value was 10 µM.

Consider `CCOc1ccc(-c2cc3c(Cl)ccnc3n2C(=O)OC(C)(C)C)cc1` [Compound 21, tert-butyl 4-chloro-2-(4-ethoxyphenyl)-1H-pyrrolo[2,3-b]pyridine-1-carboxylate], for which the EC50 in data set [1] (setting [4]), in data set [1] (setting [5]) and in data set [2] (setting [6]) was more than 25 µM throughout.

With `Oc1ccc(-c2cc3cc(Br)ccc3[nH]2)cc1` [Compound 30, 4-(5-bromo-TH-indol-2-yl)phenol], the concentration giving a half-maximal response (EC50) in data set [1] (setting [7]) and in data set [1] (setting [8]) was 7.5 µM each time.

Take `CCOc1ccc(-c2[nH]c3ncccc3c2I)cc1` [Compound 17, 2-(4-ethoxyphenyl)-3-iodo-1H-pyrrolo[2,3-b]pyridine]: the EC50 in data set [2] (setting [6]) was more than 50 µM.

Consider `CCOc1ccc(-c2cc3cccn(C(=O)N(C(C)C)C(C)C)c-3n2)cc1` [Compound 24, 2-(4-ethoxyphenyl)-N,N-diisopropyl-7H-pyrrolo[2,3-b]pyridine-7-carboxamide], for which the concentration giving a half-maximal response (EC50) in data set [1] (setting [7]) is more than 50 µM; in data set [1] (setting [11]), more than 50 µM; in data set [1] (setting [8]), 21 µM; in data set [2] (setting [12]), 11 µM; in data set [2] (setting [9]), 3.43 µM.

As for `CCOc1ccc(-c2cc3ccc(Cc4ccncn4)nc3[nH]2)cc1` [Compound 42], the EC50 in data set [1] (setting [3]) was determined as 7.06 µM; in data set [1] (setting [4]) it was 8.04 µM; in data set [2] (setting [10]), 1.84 µM; in data set [2] (setting [6]) it was 3.62 µM.

As for `Oc1ccc2[nH]c(-c3ccc(OCc4ccccc4)cc3)cc2c1` [Compound 32, 2-(4-(benzyloxy)phenyl)-1H-indol-5-ol], the results for the EC50 in data set [1] (setting [3]) and in data set [1] (setting [4]) were 1 µM and 2 µM, respectively.

Regarding `c1ccc(COc2ccc(-c3cc4ccccc4[nH]3)cc2)cc1` [Compound 31, 2-(4-(benzyloxy)phenyl)-1H-indole], the figures for the EC50 in data set [1] (setting [7]) and in data set [1] (setting [8]) were more than 25 µM and more than 15 µM, respectively.

As to `Cn1c(-c2ccc(O)cc2)cc2ccccc21` [Compound 33, 4-(1-methyl-1H-indol-2-yl)phenol], the EC50 is 10.8 µM in data set [1] (setting [3]), 32 µM in data set [1] (setting [4]) and 16 µM in data set [1] (setting [5]).

Regarding `COc1ccc(-c2cc3ccccc3n2O)cc1` [Compound 3, 2-(4-methoxyphenyl)-1H-indol-1-ol], the EC50 in data set [1] (setting [3]) came to 0.32 µM; in data set [1] (setting [4]) it was 0.92 µM; in data set [1] (setting [5]), 1.13 µM.
